# Reference: patent US9283209B2, “Oral formulations of deferasirox” (NOVARTIS AG, priority 2013, dated 2016)
# Where two headings read alike, the source gives them in different places.
# Key:
# [1] = Exjade (deferasirox) solubility profile at 37 C; type: physicochemical
# Excerpt: Due to the poor solubility of Exjade™ (deferasirox), a high dose is required to achieve the desired therapeutic effect, which results in unwanted side effects, such as gastrointestinal (GI) irritation and kidney toxicity. […] To meet the high dose requirement and reduce pill burden Exjade™ (deferasirox) was developed as dispersible tablets with about 29.4% drug load. The disadvantage of this type of formulation is that the tablets have to be dispersed in water or appropriate liquid, such as in orange juice or apple juice and stirred until a fine suspension is obtained prior to administration. Further, the dispersible tablets have to be taken at least 30 minutes before food.
# [2] = Study 2209: one year study in NTDT patients, GI adverse event rates; type: in vivo, human; conditions: 10 mg/kg
# Excerpt: The new Exjade formulations represent a significant improvement in patient care and support compliance with chelation therapy because of the improved pharmaceutical properties and because of the changes in composition. […] Exjade currently also contains lactose and so is not recommended in patients with rare hereditary problems of galactose intolerance, the Lapp lactase deficiency, glucose-galactose malabsorption or severe lactase deficiency. Novartis believes the exclusion of lactose and sodium lauryl sulfate in the new formulations will improve the gastrointestinal tolerability of the product.
# [3] = Patient study A0105F: Exjade after high-fat breakfast; type: in vivo, human; conditions: patients
# Description: (§1) Therefore, patients would only be exposed to the highest approved dose (40 mg/kg/day for the current formulation) after an extended period of up-titration with confirmed tolerability • the absence of a significant food effect results in a lower risk of increased exposure when the drug is taken with a meal.
# [4] = Thorough QT healthy volunteer study; type: in vivo, human; conditions: human, in vivo, oral, 40 mg/kg, 40 mg/kg immediately after a high-fat breakfast, 44 healthy volunteers
# Description: as §1
# (§2) Deferasirox Cmax values in healthy volunteers are generally higher than in patients. Two healthy volunteer studies in the initial registration package in 2005 were therefore reviewed for potential Cmax-related adverse events.
# [5] = test system: QT interval; assay: Thorough QT healthy volunteer study; type: in vivo, human
# Description: as §1, §2
# [6] = Randomized crossover bioequivalence study, Exjade dispersed in fruit juice or water; type: in vivo, human; conditions: single 20 mg/kg dose, 28 healthy volunteers, 2.5 to 5 hours after intake
# Excerpt: as §2
# [7] = test system: serum creatinine, creatinine clearance; conditions: human, in vivo
# Description: In addition, a new analysis of creatinine and creatinine clearance changes was performed to explore whether deferasirox-associated renal changes are a function of peak exposure (Cmax) or of overall exposure (AUC). The analysis used data from the large multicenter study 7, in which Ctrough (a proxy of AUC) and deferasirox C2h (a proxy of Cmax) was collected at multiple time points.
# Based on study 7 data, the relationship between PK parameters at steady state (Ctrough and C2h) and serum creatinine was investigated by using a linear mixed model of log-transformed creatinine values (1990 observations at week 12 and 28) with patient included in model as a random effect. After log-transformation, baseline creatinine levels, C2h and Ctrough were included as predictors in the model.
# [8] = 40 mg/kg after high-fat breakfast, 44 volunteers
smiles,measurement,setting,value
O=C(O)c1ccc(-n2nc(-c3ccccc3O)nc2-c2ccccc2O)cc1 [deferasirox],solubility,"[1]; aqueous buffer, pH 3, 37 C",< 10 µg/mL
same,solubility,"[1]; aqueous buffer, pH 4, 37 C",< 10 µg/mL
same,solubility,"[1]; aqueous buffer, pH 5, 37 C",< 10 µg/mL
same,solubility,"[1]; aqueous buffer, pH 7.5, 37 C",167 µg/mL
same,solubility,"[1]; simulated gastric fluid, pH 1, 37 C",< 10 µg/mL
same,solubility,"[1]; simulated gastric fluid, pH 2, 37 C",< 10 µg/mL
same,solubility,"[1]; water, 37 C",20 µg/mL
same,GI adverse event rate,[2],36.4%
same,Change in exposure after a high-fat breakfast,[3],nearly doubled
same,Cmax,[4]; read-out: Cmax (average),256 µM
same,Cmax,[4]; read-out: Cmax (range),134 to 472 µM
same,"GI symptoms (diarrhea/loose stools, flatulence, and nausea)",[5]; [8],18%
same,"Headache and dizziness, one patient each",[5]; [8],2%
same,Effect on the QT interval,"[5]; healthy volunteers, doses up to 40 mg/kg",no effect
same,HV subjects reporting loose stools,[6],three
same,"Estimate, Log (C2h)",[7],0.03287
same,"Estimate, Log (Ctrough)",[7],0.06504
same,"Estimate, Log (baseline creatinine)",[7],0.9593
same,"Estimate, Log(C2h)",[7],−0.00203
same,"Estimate, Log(Ctrough)",[7],0.9346
same,"Estimate, Log(baseline creatinine clearance)",[7],−10.3474
same,"OR for a 2-fold increase in PK parameter, Log(C2h)",[7],0.999
same,"OR for a 2-fold increase in PK parameter, Log(Ctrough)",[7],1.911
same,"OR for a 30% increase in PK parameter, Log(Ctrough)",[7],1.278
same,Slope of linear regression between Day 1 C2h and percent change in serum creatinine at week 4,[7],"0.03 (−0.01, 0.08)"
